Earlier results, collected in patent US20230139565A1 (GLANIS PHARMACEUTICALS, INC., priority 2020, published 2023).
Counter-ions that a name gives are not always drawn.

How the values were obtained:
[1] = test system: albumin and aphal-acid glycoprotein
[2] = not given; remark: listed apart in the source

| SMILES | terminal half-life based on blood concentration (blood) | time of peak concentration (following 200 mg oral dose) | peak concentration in blood (following 200 mg oral dose, blood) | plasma concentration (peak) (following 200 mg oral dose, plasma) | half-life (in vivo) | volume of distribution (in vivo) | oral bioavailability (oral tablet) | protein binding [1] | solubility in alcohol, chloroform, and in ether ([2]; alcohol, chloroform, ether) | solubility in water ([2]; water) |
| --- | --- | --- | --- | --- | --- | --- | --- | --- | --- | --- |
| CCN(CCO)CCCC(C)Nc1ccnc2cc(Cl)ccc12 (stereo not shown) [HCQ, Hydroxychloroquine] | 30 to 60 days | around 3 hours | around 129.6 ng/ml | around 50.3 ng/ml | ~2.08 days | high volume of distribution | about 75% | ~40% |  |  |
| CCN(CCO)CCCC(C)Nc1ccnc2cc(Cl)ccc12 (stereo not shown) [Hydroxychloroquine sulfate] |  |  |  |  |  |  |  |  | practically insoluble | freely soluble |
